Laboratory results published in patent US20160176867A1, “MODIFIED BET-PROTEIN-INHIBITING DIHYDROQUINOXALINONES AND DIHYDROPYRIDOPYRAZINONES” (BAYER PHARMA AKTIENGESELLSCHAFT, priority 2013, published 2016).

Legend:
[1] = target: T1, BRD4 bromo domain 1 [BRD4(1)] (Homo sapiens, UniProt O60885); assay: BRD4/acetylated peptide H4 binding assay (TR-FRET), BRD4 bromo domain 1; conditions: inhibition of BRD4(1)/Ac-H4 peptide interaction
T1 construct: N-terminally His6-tagged BRD4(1) (amino acids 67-152); made in house; host or cells: E. coli
Text: (§1) Protein-Protein Interaction Assay: BRD4/Acetylated Peptide H4 Binding Assay
To assess the BRD4(1) binding strength of the substances described in this application, the ability thereof to inhibit the interaction between BRD4(1) and acetylated histone H4 in a dose-dependent manner was quantified.
(§2) For this purpose, a time-resolved fluorescence resonance energy transfer (TR-FRET) assay was used, which measures the binding between N-terminally His6-tagged BRD4(1) (amino acids 67-152) and a synthetic acetylated histone H4 (Ac-H4) peptide with sequence GRGK(Ac)GGK(Ac)GLGK(Ac)GGAK(Ac)RHGSGSK-biotin. The recombinant BRD4(1) protein produced in-house according to Filippakopoulos et al., Nature, 2010, 468:1119-1123 and Cell, 2012, 149:214-231, was expressed in E. coli and purified by means of (Ni-NTA) affinity and (Sephadex G-75) size exclusion chromatography. The Ac-H4 peptide can be purchased, for example, from Biosyntan (Berlin, Germany).
(§3) In the assay, typically 11 different concentrations of each substance (0.1 nM, 0.33 nM, 1.1 nM, 3.8 nM, 13 nM, 44 nM, 0.15 μM, 0.51 μM, 1.7 μM, 5.9 μM and 20 μM) were analysed as duplicates on the same microtitre plate. For this purpose, 100-fold concentrated solutions in DMSO were prepared by serial dilutions (1:3.4) of a 2 mM stock solution into a clear, 384-well microtitre plate (Greiner Bio-One, Frickenhausen, Germany). From this, 50 nl were transferred into a black test plate (Greiner Bio-One, Frickenhausen, Germany). The test was started by the addition of 2 μl of a 2.5-fold concentrated BRD4(1) solution (final concentration typically 10 nM in the 5 μl of reaction volume) in aqueous assay buffer [50 mM HEPES pH 7.5, 50 mM sodium chloride (NaCl), 0.25 mM CHAPS and 0.05% serum albumin (BSA)] to the substances in the test plate. This was followed by a 10-minute incubation step at 22° C. for the pre-equilibration of putative complexes between BRD4(1) and the substances.
(§4) The mixture was then incubated in the dark at 22° C. for one hour and then at 4° C. for at least 3 hours and for no longer than overnight. The formation of BRD4(1)/Ac-H4 complexes was determined by the measurement of the resonance energy transfer from the streptavidin-Eu cryptate to the anti-6His-XL665 antibody present in the reaction. For this purpose, the fluorescence emission was measured at 620 nm and 665 nm after excitation at 330-350 nm in a TR-FRET measuring instrument, for example a Rubystar or Pherastar (both from BMG Lab Technologies, Offenburg, Germany) or a Viewlux (Perkin-Elmer). The ratio of the emissions at 665 nm and at 622 nm was taken as an indicator of the amount of BRD4(1)/Ac-H4 complexes formed.
(§5) The data (ratios) obtained were normalized, with 0% inhibition corresponding to the mean from the measurements for a set of controls (typically 32 data points) in which all the reagents were present. In these, in place of test substances, 50 nl of DMSO (100%) were used. Inhibition of 100% corresponded to the mean from the measurements for a set of controls (typically 32 data points) in which all the reagents except BRD4(1) were present. The IC50 was determined by regression analysis based on a 4-parameter equation (minimum, maximum, IC50, Hill; Y=max+(min−max)/(1+(X/IC50)Hill)).

[2] = target: T2, BRD4 bromo domain 2 [BRD4(2)] (Homo sapiens, UniProt O60885); assay: BRD4/acetylated peptide H4 binding assay (TR-FRET), BRD4 bromo domain 2; conditions: inhibition of BRD4(2)/Ac-H4 peptide interaction
T2 construct: N-terminally His6-tagged BRD4(2) (amino acids 357-445); made in house; host or cells: E. coli
Text: as §1
To assess the BRD4(2) binding strength of the substances described in this application, the ability thereof to inhibit the interaction between BRD4(2) and acetylated histone H4 in a dose-dependent manner was quantified.
as §2, with “BRD4(2)” for “BRD4(1)”, “357-445)” for “67-152)”, “SGRGK(Ac)GGK(Ac)GLGK(Ac)GGAK(Ac)RHRKVLRDNGSGSK-biotin.” for “GRGK(Ac)GGK(Ac)GLGK(Ac)GGAK(Ac)RHGSGSK-biotin.”
as §3, with “concentrated BRD4(2)” for “concentrated BRD4(1)”, “typically 100” for “typically 10”, “chloride (NaCl); 50 mM potassium fluoride (KF);” for “chloride (NaCl),”, “between BRD4(2)” for “between BRD4(1)”, “substances. Subsequently, 3 μl of a 1.67-fold concentrated solution (in assay buffer) consisting of Ac-H4 peptide (83.5 nM) and TR-FRET detection reagents [83.5 nM anti-6His-XL665 (Cisbio Bioassays, Codolet, France) and 12.52 nM streptavidin-Eu), (Perkin Elmer, #W1024)] in assay buffer were added.” for “substances.”
as §4, with “BRD4(2)/Ac-H4” for “BRD4(1)/Ac-H4”, “chelate” for “cryptate”
as §5, with “BRD4(2)” for “BRD4(1)”

Work on Cc1cccc(N2c3nc(Nc4cccc(S(=O)(=O)N5CCOCC5)c4)ccc3N(C)C(=O)C2C)c1 (stereo not drawn) [Example 64, 1,3-dimethyl-4-(3-methylphenyl)-6-{[3-(morpholin-4-ylsulphonyl)phenyl]-amino}-3,4-dihydropyrido[2,3-b]pyrazin-2(1H)-one] yielded an IC50 [1] of 0.271 µM and an IC50 [2] of 0.197 µM.
Compound Cc1cccc(N2c3nc(Nc4cccc(S(=O)(=O)NC5CCN(C)CC5)c4)ccc3N(C)C(=O)C2C)c1 (stereo not drawn) [Example 65, 3-{[1,3-dimethyl-4-(3-methylphenyl)-2-oxo-1,2,3,4-tetrahydropyrido-[2,3-b]pyrazin-6-yl]amino}-N-(1-methylpiperidin-4-yl)benzenesulphonamide] has an IC50 [1] of 0.386 µM and an IC50 [2] of 0.589 µM.
For C[C@@H]1C(=O)N(C)c2ccc(Nc3cccc(S(=O)(=O)N4CCN(CC(F)(F)F)CC4)c3)nc2N1C1CCN(C(=O)OC(C)(C)C)CC1 [Example 66, tert-butyl 4-[(3R)-1,3-dimethyl-2-oxo-6-[(3-{[4-(2,2,2-trifIuoroethyl)-piperazin-1-yl]sulphonyl}-phenl)amino]-2,3-dihydropyrido[2,3-b]pyrazin-4(1H)-yl]piperidine-1-carboxylate], the IC50 [1] was 1.11 µM and the IC50 [2] was 0.308 µM.
In the case of CC1C(=O)N(C)c2ccc(Nc3cccc(S(=O)(=O)N4CCN(C)CC4)c3)nc2N1c1ccc(N2CCN(C(=O)OC(C)(C)C)CC2)cc1 (stereo not drawn) [Example 67, tert-butyl 4-{4-[1,3-dimethyl-6-({3-[(4-methylpiperazin-1-yl)sulphonyl]phenl}-amino)-2-oxo-2,3-dihydropyrido[2,3-b]pyrazin-4(1H)-yl]phenyl}piperazine-1-carboxylate], the IC50 [1] is reported as 4.38 µM and the IC50 [2] is reported as 5.19 µM.
C[C@@H]1C(=O)N(C)c2ccc(Nc3cccc(S(=O)(=O)N(C)C)c3)cc2N1C1CCN(C(=O)OC(C)(C)C)CC1 [Example 68, tert-butyl 4-[(2R)-7-{[3-(dimethylsulphamoyl)-phenyl]amino}-2,4-dimethyl-3-oxo-3,4-dihydroquinoxalin-1(2H)-yl]piperidine-1-carboxylate] gave an IC50 [1] of 0.433 µM and an IC50 [2] of 0.076 µM.
For C[C@@H]1C(=O)N(C)c2ccc(Nc3cccc(S(=O)(=O)N(C)C)c3)cc2N1Cc1ccccc1 [Example 69, 3-{[(3R)-4-benzyl-1,3-dimethyl-2-oxo-1,2,3,4-tetrahydroquinoxalin-6-yl]amino}-N,N-dimethyl-benzenesulphonamide], the IC50 [1] was 0.496 µM and the IC50 [2] was 0.063 µM.
In the case of C[C@@H]1C(=O)N(C)c2ccc(N(C)c3cccc(S(=O)(=O)N(C)C)c3)cc2N1C1CCN(C(=O)OC(C)(C)C)CC1 [Example 70, tert-butyl 4-[(2R)-7-{[3-(dimethylsulphamoyl)-phenyl](methyl)amino}-2,4-dimethyl-3-oxo-3,4-dihydroquinoxalin-1(2H)-yl]piperidine-1-carboxylate], the IC50 [1] is reported as 0.749 µM and the IC50 [2] is reported as 0.384 µM.
C[C@@H]1C(=O)N(C)c2ccc(Nc3cccc(S(=O)(=O)N4CCN(C)CC4)c3)cc2N1C1CCOCC1 [Example 71, (3R)-1,3-dimethyl-6-({3-[(4-methylpiperazin-1-yl)sulphonyl]phenl}-amino)-4-(tetrahydro-2H-pyran-4-yl)-3,4-dihydroquinoxalin-2(1H)-one] was tested, and the IC50 [1] was 0.232 µM and the IC50 [2] was 0.315 µM.
For CC(C)N1CCN(C(=O)c2cccc(Nc3ccc4c(n3)N(Cc3ccccc3)[C@H](C)C(=O)N4C)c2)CC1 [Example 76, (3R)-4-benzyl-6-({3-[(4-isopropylpiperazin-1-yl)carbonyl]phenyl}-amino)-1,3-dimethyl-3,4-dihydropyrido[2,3-b]pyrazin-2(1H)-one], the IC50 [1] was 0.143 µM and the IC50 [2] was 0.108 µM.
Compound C[C@@H]1C(=O)N(C)c2ccc(Nc3cccc(C(=O)N4CCN(C)CC4)c3)nc2N1C1CCN(C(=O)OC(C)(C)C)CC1 [Example 78, tert-butyl 4-[(3R)-1,3-dimethyl-6-({3-[(4-methylpiperazin-1-yl)carbonyl]phenyl}-amino)-2-oxo-2,3-dihydropyrido[2,3-b]pyrazin-4(1H)-yl]piperidine-1-carboxylate] has an IC50 [1] of 0.151 µM and an IC50 [2] of 0.157 µM.
C[C@@H]1C(=O)N(C)c2ccc(Nc3cccc(C(=O)NC4CCC(NC5CCN(C)CC5)CC4)c3)nc2N1C1CCOCC1 (stereo partly drawn) [Example 80, 3-{[(3R)-1,3-dimethyl-2-oxo-4-(tetrahydro-2H-pyran-4-yl)-1,2,3,4-tetrahydropyrido[2,3-b]pyrazin-6-yl]amino}-N-{4-[(1-methylpiperidin-4-yl)amino]cyclohexyl} benzamide] gave an IC50 [1] of 0.196 µM and an IC50 [2] of 0.247 µM.
Compound COc1ccc(Nc2ccc3c(n2)N(C2CCOCC2)[C@H](C)C(=O)N3C)cc1C(=O)NC1CCN(C)CC1 [Example 81, 5-{[(3R)-1,3-dimethyl-2-oxo-4-(tetrahydro-2H-pyran-4-yl)-1,2,3,4-tetrahydropyrido[2,3-b]pyrazin-6-yl]amino}-2-methoxy-N-(1-methylpiperidin-4-yl)benzamide] has an IC50 [1] of 0.21 µM and an IC50 [2] of 0.227 µM.
